In publication PMC11946679 (Toxics, 2025):
Marks after values point to notes of the source that are not given here.

Columns and labels:
[1] = test system: human peripheral blood lymphocytes; format: cell-based; conditions: alone, 3 h, IRI 9.0 mg/L, bleomycin 15 mg/L; for Total No. of Cells in Apoptosis / Total No. of Nonviable Cells: scored along with 4000 binucleated cells
Text: While screening microscope preparations to determine trends in the levels of the main CBMN assay descriptors, nonviable cells were also simultaneously counted on the same slides. Their discrimination was based on the specific morphological features typical for apoptosis or necrosis. It is well known that the biological significance of these phenomena differs deeply, and that the determination of the predominant type of cell death represents a very important issue in each experimental setting.
For each experimental group, we also calculated the ratio between the recorded number of nonviable cells and the cells in apoptosis (Table 5). According to reference, a ratio ≤ 1 means a prevalence of apoptotic events that induce cell death, while a ratio > 1 indicates the acute toxicity of the tested substance that promotes necrosis.

[2] = test system: human peripheral blood lymphocytes; test: CBMN cytome assay: lymphocyte proliferation (M1-M4, CBPI, RI); format: cell-based; conditions: alone, 3 h; IRI 9.0 mg/L, bleomycin 15 mg/L
Experimental: On the same slides, parameters of cell proliferation and cytotoxicity were also evaluated, in line with the OECD protocol.

[3] = test system: human peripheral blood lymphocytes; test: CBMN cytome assay: micronuclei, nuclear buds, nucleoplasmic bridges; conditions: alone, 3 h; IRI 9.0 mg/L, bleomycin 15 mg/L
Experimental: The CBMN assay was performed in line with standard protocols [8, 23].
To collect the blood sample, lithium heparin-coated tubes were used (BD vacutainer® with LH 170 I.U., Becton Dickinson: BD-Plymouth PL6 78P, UK).
There were 15 experimental groups altogether. The same experimental design was applied in two independent trials, each of which had two replicate cultures per experimental group; therefore, four replicate cultures for every single experimental group were established.
To induce cell division prior to exposure to the test chemicals, lymphocytes were stimulated with the mitogen phytohemagglutinin (PHA). Cultures were kept in a humidified atmosphere of 5% CO2 at 37 °C.
They started 41 h after PHA stimulation and lasted for 3 h at 37 °C.
Upon completion of exposure, lymphocyte cultures were centrifuged at 100× g. […] This procedure was timed for the 44th hour of lymphocyte cultivation, which represents a critical point for adding of cytoB to hinder cytokinesis and obtain binucleated cells. All treated and control cultures were further maintained at 37 °C until the end of the 72nd hour of cultivation, according to the above-mentioned standard protocols.
The first step in the preparation of microscopic slides was harvesting of cells by centrifugation (100× g), followed by treatment with 0.075 mol/L potassium chloride and succeeded by centrifugation. The sediments of cells were repeatedly fixed with methanol/acetic acid (3:1 v/v) followed by centrifugation. The final lymphocyte suspension was pipetted onto clean microscope slides. For staining, 5% aqueous solution of Giemsa dye was used. Slides were screened using a light microscope at 1000× magnification. For morphological discrimination of micronuclei (MNi), nuclear buds (NBs), nucleoplasmic bridges (NPBs) and cells in apoptosis or necrosis, the criteria by Fenech et al. [25] and Fenech [23] were applied. To determine their frequencies, per experimental point, a total of 4 × 1000 binucleated (BN) cells were scored.
This value was first used to estimate the number of MNi required to reach a decrease and an increase considered significant at a 5% significance level.

CCc1c2c(nc3ccc(OC(=O)N4CCC(N5CCCCC5)CC4)cc13)-c1cc3c(c(=O)n1C2)COC(=O)[C@]3(O)CC [Irinotecan, reference compound]
Total No. of Cells in Apoptosis [1]: 42 | Total No. of Nonviable Cells [1]: 76 | % of Cells with 1 to 4 Nuclei M1 [2]: 43.1 ^↑ % | % of Cells with 1 to 4 Nuclei M2 [2]: 52.9 ^↓ % | % of Cells with 1 to 4 Nuclei M3 [2]: 2.0 ^↓ % | % of Cells with 1 to 4 Nuclei M4 [2]: 2.0 ^↓ % | CBPI [2]: 1.609

Bleomycin [reference compound]
Distribution of BNMN Cells with 1 MN [3]: 65 * | Distribution of BNMN Cells with 2 MN [3]: 11 iri, g10+iri | Distribution of BNMN Cells with 3 MN [3]: 2 | Distribution of BNMN Cells with 4 MN [3]: 1 | Distribution of BNNB Cells with 1 NB [3]: 49 * | Distribution of BNNB Cells with 2 NB [3]: 4 c,p1,p5,p10,g1, g5,g10, p1+iri, p5+iri, p10+iri, g5+iri, g10+iri | Distribution of BNNPB Cells with 1 NPB [3]: 7 c,p1,p5,p10,g1, g5,g10, p1+iri, p5+iri, p10+iri, g1+iri, g5+iri, g10+iri | Distribution of BNNPB Cells with 2 NPB [3]: 0 | Micronuclei (MNi) Mean (BNMN)1000 ± SD [3]: 19.75 ± 3.77 | Micronuclei (MNi) Mean (MNi)1000 ± SD [3]: 24.25 ± 6.24 | Micronuclei (MNi) Total (BNMN)4000 [3]: 79 * | Micronuclei (MNi) Total (MNi)4000 [3]: 97 * | Nuclear Buds (NBs) Mean (BNNB)1000 ± SD [3]: 13.25 ± 0.96 | Nuclear Buds (NBs) Mean (NBs)1000 ± SD [3]: 14.25 ± 0.50 | Nuclear Buds (NBs) Total (BNNB)4000 [3]: 53 * | Nuclear Buds (NBs) Total (NBs)4000 [3]: 57 * | Nucleoplasmic Bridges (NPBs) Mean (BNNPB)1000 ± SD [3]: 1.75 ± 1.26 c,p1,p5,p10, g1,g5,g10, p1+iri, p5+iri, p10+iri, g1+iri, g5+iri, g10+iri | Nucleoplasmic Bridges (NPBs) Mean (NPBs)1000 ± SD [3]: 1.75 ± 1.26 c,p1,p5,p10, g1,g5,g10, p1+iri, p5+iri, p10+iri, g1+iri, g5+iri, g10+iri | Nucleoplasmic Bridges (NPBs) Total (BNNPB)4000 [3]: 7 c,p1,p5, p10,g1,g5,g10,p1+iri,p5+iri, p10+iri, g1+iri, g5+iri, g10+iri | Nucleoplasmic Bridges (NPBs) Total (NPBs)4000 [3]: 7 c,p1,p5,p10,g1,g5,g10,p1+iri, p5+iri, p10+iri, g1+iri, g5+iri, g10+iri | Ratio (nonviable cells and cells in apoptosis) [1]: 0.6 | Total No. of Cells in Apoptosis [1]: 59 | Total No. of Nonviable Cells [1]: 100 | % of Cells with 1 to 4 Nuclei M1 [2]: 45.5 ^↑ % | % of Cells with 1 to 4 Nuclei M2 [2]: 46.1 ^↓ % | % of Cells with 1 to 4 Nuclei M3 [2]: 4.2% | % of Cells with 1 to 4 Nuclei M4 [2]: 4.2 ^↓ % | CBPI [2]: 1.629 | Replication Index (%) [2]: 64.0%
